Experimental data reported in US20050143472A1, “Novel treatment for pathologies associated with oxidative damage” (priority 2002, published 2005).
Where two headings read alike, the source gives them in different places.

Legend:
mPAO = target: T1, mPAO (Mus musculus, UniProt Q8C0L6); experiment: HPLC analysis of PAO oxidation products; assay type: biochemical, murine
T1 construct: the full length cDNA of mpao was released by Nde I and Hind III treatment, and ligated into Nde I and Hind III sites of pET29c; made in house; host or cells: E. coli BL21 GOLD (DE3), plasmid pET-MPAO (pET29c)
Source text: In this example, methods are described for determining the nature of the products of substrate oxidation by PAO. In a solution at pH 7.6 containing catalase to destroy H2O2, mPAO and N^1-acetyl-Spm, at known concentrations, were allowed to react until the latter had been completely oxidized. mPAO and N^1-acetyl-Spd were similarly allowed to react. Both reactions solutions contained a known amount of N-(3-aminopropyl)-1,10-diaminodecane (Tocris Cookson) as an internal standard. […] Aliquots of these reaction mixtures were treated with dansyl chloride (5-dimethylamino-1-naphthalenesulfonyl chloride) obtained from Sigma. The resulting dansylated polyamine products from each reaction were analyzed by reverse-phase high-pressure liquid chromatography (HPLC) following established procedures (Hunter, Methods in Molecular Biology: Polyamine Protocols, Morgan (ed.) Human Press, Totowa, N.J., Vol. 79, Chapter 14, pp 119-123). […] Detection was accomplished with a Gilson Spetra/Glo fluorescence detector using a 7-51× excitation filter (330-400 nm) and a 3-72M emission filter (460-600 n m). […]
Aliquots of each of the above described enzyme-reaction solutions were treated with an equal volume of 2,4-dinitrophenylhydrazine (Acros Organics) solution (100 mg in 94 mL ethanol+6 mL of concentrated HCl). […] The 368-nm chromatograms were used for quantitative analyses.

hpao mRNA = tested on: hpao mRNA
Protocol: In addition, a reverse-transcriptase-PCR (RT-PCR) experiment was performed to analyze the expression of hpao in OVCAR-3 and HL-60 cells. Briefly, about 10^6 to 10^7 cells were harvested and the total RNA of each sample was isolated by using the RNeasy miniprep kit (QIAGEN). A 1 μg mRNA sample was used for cDNA synthesis with the MMLV reverse transcriptase following the manufacturer's instructions provided with the Advantage RT-for-PCR Kit (Clontech). Human liver and placenta polyA mRNA were also obtained from Clontech. cDNA amplification was achieved following the SMART RACE™ cDNA Amplification method (Clontech). A pair of gene specific primers was generated based on the hpao cDNA sequence; hpao1 was the sense primer 5′-[…] ACCTTTC-3′ (SEQ ID NO:17), and hpao2R was the antisense primer 5′-[…] AGT-3′ (SEQ ID NO:18). Positive control amplimers for human G3PDH (glyceraldehyde-3-phosphate-dehydrogenase) were also used; the sense primer was 5′-[…] G-3′ (SEQ ID NO:19) and the antisense primer was 5′-[…] CT-3′ (SEQ ID NO:20). PCR was performed at 94° C. for 3 min, 25 cycles at 94° C. for 10 sec, 68° C. for 1 min, and 72° C. for 1 min.
In this Example, the method used to examine hpao mRNA production by cultured cells undergoing apoptosis is described.

T1 sequence (Q8C0L6 whole entry E184K/L285S/R416L/R417S/Q419R/E451A/V490I/S491G/V497A): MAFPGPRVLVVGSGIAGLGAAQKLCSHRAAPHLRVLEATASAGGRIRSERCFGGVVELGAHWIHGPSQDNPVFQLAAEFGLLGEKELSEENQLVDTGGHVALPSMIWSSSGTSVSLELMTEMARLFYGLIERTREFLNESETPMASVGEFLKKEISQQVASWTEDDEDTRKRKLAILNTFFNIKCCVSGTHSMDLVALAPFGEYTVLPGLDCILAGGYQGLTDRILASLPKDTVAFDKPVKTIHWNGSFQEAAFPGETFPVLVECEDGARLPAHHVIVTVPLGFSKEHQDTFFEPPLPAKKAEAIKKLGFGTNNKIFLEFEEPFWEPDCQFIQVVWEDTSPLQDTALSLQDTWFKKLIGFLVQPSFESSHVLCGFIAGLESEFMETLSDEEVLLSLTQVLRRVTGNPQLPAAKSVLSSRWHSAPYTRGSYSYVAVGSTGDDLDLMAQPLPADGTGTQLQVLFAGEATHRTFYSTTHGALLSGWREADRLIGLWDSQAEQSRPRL

CC(=O)NCCCNCCCCNCCCN [N^1-acetyl-Spm, N^1-acetyl-spermine]
3-acetamidopropanal produced on complete oxidation by PAO (mPAO; 2,4-dinitrophenylhydrazine HPLC): equivalent amount
polyamine product of complete PAO oxidation (Spd or putrescine) (mPAO; pH 7.6, catalase present, dansyl chloride HPLC): stoichiometric amounts
hpao mRNA level (hpao mRNA; HL-60 cells, 48 hr exposure to high concentrations): no change
hpao mRNA level (hpao mRNA; OVCAR-3 cells, very quickly after exposure): significant levels of hpao mRNA were induced
